Consider 6 compounds from publication PMC8989888, “Development of optimized drug-like small molecule inhibitors of the SARS-CoV-2 3CL protease for treatment of COVID-19” (Nature Communications, 2022).

Structures are written as SMILES. Values joined by “and” are separate entries in the source; they are usually repeats but may differ in a detail not shown here. Equal entries are not always repeated. Where two headings read alike, the source gives them in different places.

The target of assay [1] is T1, SARS-CoV-2 3CL protease (Severe acute respiratory syndrome coronavirus 2, UniProt P0DTD1). Description: biochemical. The conditions noted are these: for Normalized SARS-CoV-2 3CL protease activity: 0.2 µM protease with 50 µM tested compound, replicates.
For assay [2], the target named is T1, SARS-CoV-2 3CL protease. The assay is classed as binding.
A further assay deals with SARS-CoV-2. Description: microbe, parasite or virus in culture. The assay is classed as cell-based. The following applies: for EC50: Severe acute respiratory syndrome coronavirus 2, Vero C1008, read-out: SARS-CoV-2 Vero E6 EC50.
In assay [3] the target is T1, SARS-CoV-2 3CL protease. Description: biochemical. The following applies: for kinact/KI: read-out: SARS-CoV-2 3CLpro kinact/KI.
The target of assay [4] is T1, SARS-CoV-2 3CL protease. The assay is classed as binding. The source holds these as a separate data set.
In a further assay the test system is human chymotrypsin. Description: Chymotrypsin activity assay (Panc-1 cell lysate). The format is biochemical.
The subject of assay [5] is Influenza A H1N1 (strain: California/07/2009). Description: microbe, parasite or virus in culture. The assay is classed as cell-based. The following applies: Influenza A virus, H1N1, MDCK, read-out: Influenza A (H1N1) MDCK EC50.
In assay [6] the target is T1, SARS-CoV-2 3CL protease. Description: cell-based.
Where [7] appears, read: 20 nM protease, read-out: SARS-CoV-2 3CLpro IC50.
Where [8] appears, read: Concentration of inhibitor (nM) 0.19382.
Setting [9] is: Concentration of inhibitor (nM) 0.49485.
Setting [10] is: Concentration of inhibitor (nM) 0.79588.
The mark [11] stands for this setting: Concentration of inhibitor (nM) 1.09691.
Where [12] appears, read: Concentration of inhibitor (nM) 1.39794.
Setting [13] is: Concentration of inhibitor (nM) 1.69897.
Where [14] appears, read: Concentration of inhibitor (nM) 2.
Where [15] appears, read: Concentration of inhibitor (nM) 2.30103.
Where [16] appears, read: Concentration of inhibitor (nM) 2.60206.
Where [17] appears, read: Concentration of inhibitor (nM) -0.10721.
[18] abbreviates: Concentration of inhibitor (nM) -0.40824.

Turning to `O=C(N[C@@H](CC1CCCCC1)C(=O)N[C@@H](C[C@@H]1CCNC1=O)C(O)S(=O)(=O)O)OCc1cccc(Cl)c1` (some centres unmarked) [EB48], on SARS-CoV-2 3CL protease [1] (setting [7]), the IC50 was 200 nM. In addition, the “normalized activity, dose-response curve (Figure S16)” value (shortened to “normalized activity”) at SARS-CoV-2 3CL protease [1] (setting [8]) is 110.351 and 97.4198; at SARS-CoV-2 3CL protease [1] (setting [9]) it was 103.827 and 92.511; on SARS-CoV-2 3CL protease [1] (setting [10]), 102.384 and 88.7351; at SARS-CoV-2 3CL protease [1] (setting [11]), 98.7453 and 87.9169; on SARS-CoV-2 3CL protease [1] (setting [12]), 87.2647 and 81.1831; at SARS-CoV-2 3CL protease [1] (setting [13]) it was 80.9285 and 77.1554. The “normalized activity” value on SARS-CoV-2 3CL protease [1] (setting [14]) was 69.8871 and 61.2964; on SARS-CoV-2 3CL protease [1] (setting [15]), 58.4065 and 46.4443; on SARS-CoV-2 3CL protease [1] (setting [16]), 43.601 and 36.7527; on SARS-CoV-2 3CL protease [1] (setting [17]), 108.281 and 111.58; at SARS-CoV-2 3CL protease [1] (setting [18]), 100. On SARS-CoV-2 3CL protease [2], the “binding to 3CL protease by mass spectrometry (in words)” value (from here on “binding to 3CL protease”) is recorded as “blocked the covalent binding of 10 equivalents of compound 4”. The EC50 in the assay with SARS-CoV-2 was found to be 16000 nM. Further, at SARS-CoV-2 3CL protease [3], the “observed inactivation rate vs compound concentration (Figure S19, replicate values)” value is 0.0858 and 0.04 and 0.095 and 0.0226 and 0.0022 and 0.0296 and 0.1194 and 0.0166 and 0.0446 and 0.0488 and 0.0144 and 0.0572 and 0.0269 and -0.02233 and 0.0225 and 0.0208 and 0.0151 and 0.0309. Further, the kinact/KI on SARS-CoV-2 3CL protease [3] is 35000 M⁻¹ s⁻¹.

`O=C(Oc1cncc(Cl)c1)c1cccs1` [MAC-5576, reference compound] gave a binding stoichiometry on SARS-CoV-2 3CL protease [4] of 1.2 ± 0.2. Also, the half-maximal inhibitory concentration (IC50) against SARS-CoV-2 3CL protease [1] (IC50) was 93 nM; on SARS-CoV-2 3CL protease [1] (SARS-CoV-2 3CLpro IC50) it was 10 nM. Besides, the “binding to 3CL protease” value at SARS-CoV-2 3CL protease [2] was “one-to-one complex”. In the assay with human chymotrypsin, the Normalized chymotrypsin activity is 1.078 and 0.9826 and 0.9946. Moreover, the “% SARS-CoV-2 inhibition” value in the assay with SARS-CoV-2 is reported as -2%. In the assay with SARS-CoV-2, the “EC50, inhibition of SARS-CoV-2 viral replication” value is reported as “did not”.

For `NC(=O)c1ncn([C@@H]2O[C@H](CO)[C@@H](O)[C@H]2O)n1` [Ribavirin, reference compound], the EC50 in assay [5] came to 3200 nM.

Regarding `O=C(N[C@@H](CC1CCCCC1)C(=O)N[C@@H](C[C@@H]1CCNC1=O)C(O)S(=O)(=O)O)OCc1ccccc1` (some centres unmarked) [SL-4-241], the IC50 at SARS-CoV-2 3CL protease [1] (setting [7]) was 75 nM. In addition, the “normalized activity” value on SARS-CoV-2 3CL protease [1] (setting [8]) is 94.2892 and 94.3168; at SARS-CoV-2 3CL protease [1] (setting [9]), 87.5254 and 99.9152; at SARS-CoV-2 3CL protease [1] (setting [10]), 89.3075 and 94.6561; on SARS-CoV-2 3CL protease [1] (setting [11]) it was 90.077 and 87.1492; on SARS-CoV-2 3CL protease [1] (setting [12]), 78.3315 and 75.5284; on SARS-CoV-2 3CL protease [1] (setting [13]) it was 69.502 and 62.8473. In addition, the “normalized activity” value at SARS-CoV-2 3CL protease [1] (setting [14]) was 41.1102 and 41.9808; on SARS-CoV-2 3CL protease [1] (setting [15]), 10.8147 and 10.0871; on SARS-CoV-2 3CL protease [1] (setting [16]), 3.241 and 2.3258; at SARS-CoV-2 3CL protease [1] (setting [17]), 98.5824 and 101.484; at SARS-CoV-2 3CL protease [1] (setting [18]), 100. At SARS-CoV-2 3CL protease [2], the “binding to 3CL protease” value is “blocked the covalent binding of 10 equivalents of compound 4”. Further, in the assay with SARS-CoV-2, the half-maximal effective concentration (EC50) was 17000 nM. In addition, at SARS-CoV-2 3CL protease [3], the “observed inactivation rate vs compound concentration (Figure S19, replicate values)” value was 0.0986 and 0.0638 and 0.0852 and 0.1375 and 0.0874 and 0.0292 and 0.1342 and 0.0676 and 0.0349 and 0.0089 and 0.0058 and 0.057 and 0.065 and 0.0135 and 0.036 and 0.0158 and 0.0274 and 0.003 and 0.0091 and 0.01 and -0.00355. The kinact/KI at SARS-CoV-2 3CL protease [3] was 23300 M⁻¹ s⁻¹.

For the compound `Cn1ncc(C(=O)Oc2cncc(Cl)c2)c1-n1cccc1` [Z26], on SARS-CoV-2 3CL protease [1], the “Normalized SARS-CoV-2 3CL protease activity” value is 0.2302 and 0.2702 and 0.2695. At SARS-CoV-2 3CL protease [6], the “Absorbance (crystal violet), SARS-CoV-2 3CLpro” value is 0.1558 and 0.1505.

`CC(=O)Nc1ccc(C(=O)Oc2cncc(Cl)c2)cc1` [Z32]: the “Normalized SARS-CoV-2 3CL protease activity” value on SARS-CoV-2 3CL protease [1] was 0.07213 and 0.1423 and 0.1862. In addition, the “Absorbance (crystal violet), SARS-CoV-2 3CLpro” value on SARS-CoV-2 3CL protease [6] is 0.1483 and 0.1499.

What is called IC50 is the midpoint of a concentration-inhibition curve. The EC50 is the midpoint of the concentration-response curve.
